Measured values published in patent publication US20080146617A1, “Methods of treating inflammatory diseases” (Roche Palo Alto LLC, priority 2006, published 2008).

Key:
Test in all cases: KinomeScan kinase profiling
Type in all cases: binding
CSNK2A1 = biological target: T1, CSNK2A1 (Homo sapiens, UniProt P68400)
T1 construct: purchased Ambit Biosciences (San Diego, Calif.)
Description: (§1) The selectivity of a given CK1δ, CK1ε or CK1δ-CK1ε inhibitor compound can be determined by testing the compound against a panel of known kinases. An example of such a kinase profiling technology is the “KinomeScan” from Ambit Biosciences in which compounds can be screened for their modulatory activities against more than 200 known kinases.

SLK = biological target: T2, SLK (Homo sapiens, UniProt Q9H2G2)
T2 construct: purchased Ambit Biosciences
Description: as §1

RAF1 = biological target: T3, RAF1 (Homo sapiens, UniProt P04049)
T3 construct: purchased Ambit Biosciences
Description: as §1

HCK = biological target: T4, HCK (Homo sapiens, UniProt P08631)
T4 construct: purchased Ambit Biosciences (San Diego, Calif.)
Description: as §1

PTK2 = biological target: T5, PTK2 (Homo sapiens, UniProt Q05397)
T5 construct: purchased Ambit Biosciences
Description: as §1

JNK1 = biological target: T6, JNK1 (Homo sapiens, UniProt P45983)
T6 construct: purchased Ambit Biosciences (San Diego, Calif.)
Description: as §1

DMPK = biological target: T7, DMPK (Homo sapiens, UniProt Q09013)
T7 construct: purchased Ambit Biosciences (San Diego, Calif.)
Description: as §1

NEK6 = biological target: T8, NEK6 (Homo sapiens, UniProt Q9HC98)
T8 construct: purchased Ambit Biosciences (San Diego, Calif.)
Description: as §1

JAK1(Kin.Dom1) = biological target: T9, JAK1(Kin.Dom1) (Homo sapiens, UniProt P23458)
T9 construct: JAK1(Kin.Dom1); purchased Ambit Biosciences (San Diego, Calif.)
Description: as §1

VEGFR2 = biological target: T10, VEGFR2 (Homo sapiens, UniProt P35968)
T10 construct: purchased Ambit Biosciences (San Diego, Calif.)
Description: as §1

ABL2 = biological target: T11, ABL2 (Homo sapiens, UniProt P42684)
T11 construct: purchased Ambit Biosciences (San Diego, Calif.)
Description: as §1

ITK = biological target: T12, ITK (Homo sapiens, UniProt Q08881)
T12 construct: purchased Ambit Biosciences (San Diego, Calif.)
Description: as §1

MKNK2 = biological target: T13, MKNK2 (Homo sapiens, UniProt Q9HBH9)
T13 construct: purchased Ambit Biosciences (San Diego, Calif.)
T13 sequence (Q9HBH9 whole entry): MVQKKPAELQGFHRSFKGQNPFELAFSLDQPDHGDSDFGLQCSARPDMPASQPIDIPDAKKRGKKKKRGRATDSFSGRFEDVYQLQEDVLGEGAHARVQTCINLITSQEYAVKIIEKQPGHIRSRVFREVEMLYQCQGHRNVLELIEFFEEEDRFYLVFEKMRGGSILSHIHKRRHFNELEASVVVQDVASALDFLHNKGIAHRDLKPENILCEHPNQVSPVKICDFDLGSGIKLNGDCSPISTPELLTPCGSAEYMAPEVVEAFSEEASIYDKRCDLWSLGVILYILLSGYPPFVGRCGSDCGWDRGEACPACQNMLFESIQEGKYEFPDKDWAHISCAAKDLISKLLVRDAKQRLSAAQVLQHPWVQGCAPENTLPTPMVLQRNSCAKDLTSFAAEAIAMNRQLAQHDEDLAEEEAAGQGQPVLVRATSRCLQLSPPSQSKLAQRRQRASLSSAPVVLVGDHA
Description: as §1

PAK1 = biological target: T14, PAK1 (Homo sapiens, UniProt Q13153)
T14 construct: purchased Ambit Biosciences (San Diego, Calif.)
Description: as §1

TXK = biological target: T15, TXK (Homo sapiens, UniProt P42681)
T15 construct: purchased Ambit Biosciences
Description: as §1

YES = biological target: T16, YES (Homo sapiens, UniProt P07947)
T16 construct: purchased Ambit Biosciences (San Diego, Calif.)
Description: as §1

PKMYT1 = biological target: T17, PKMYT1 (Homo sapiens, UniProt Q99640)
T17 construct: purchased Ambit Biosciences (San Diego, Calif.)
Description: as §1

JNK3 = biological target: T18, JNK3 (Homo sapiens, UniProt P53779)
T18 construct: purchased Ambit Biosciences (San Diego, Calif.)
Description: as §1

TTK = biological target: T19, TTK (Homo sapiens, UniProt P33981)
T19 construct: purchased Ambit Biosciences
Description: as §1

LTK = biological target: T20, LTK (Homo sapiens, UniProt P29376)
T20 construct: purchased Ambit Biosciences (San Diego, Calif.)
T20 sequence (P29376 17-864): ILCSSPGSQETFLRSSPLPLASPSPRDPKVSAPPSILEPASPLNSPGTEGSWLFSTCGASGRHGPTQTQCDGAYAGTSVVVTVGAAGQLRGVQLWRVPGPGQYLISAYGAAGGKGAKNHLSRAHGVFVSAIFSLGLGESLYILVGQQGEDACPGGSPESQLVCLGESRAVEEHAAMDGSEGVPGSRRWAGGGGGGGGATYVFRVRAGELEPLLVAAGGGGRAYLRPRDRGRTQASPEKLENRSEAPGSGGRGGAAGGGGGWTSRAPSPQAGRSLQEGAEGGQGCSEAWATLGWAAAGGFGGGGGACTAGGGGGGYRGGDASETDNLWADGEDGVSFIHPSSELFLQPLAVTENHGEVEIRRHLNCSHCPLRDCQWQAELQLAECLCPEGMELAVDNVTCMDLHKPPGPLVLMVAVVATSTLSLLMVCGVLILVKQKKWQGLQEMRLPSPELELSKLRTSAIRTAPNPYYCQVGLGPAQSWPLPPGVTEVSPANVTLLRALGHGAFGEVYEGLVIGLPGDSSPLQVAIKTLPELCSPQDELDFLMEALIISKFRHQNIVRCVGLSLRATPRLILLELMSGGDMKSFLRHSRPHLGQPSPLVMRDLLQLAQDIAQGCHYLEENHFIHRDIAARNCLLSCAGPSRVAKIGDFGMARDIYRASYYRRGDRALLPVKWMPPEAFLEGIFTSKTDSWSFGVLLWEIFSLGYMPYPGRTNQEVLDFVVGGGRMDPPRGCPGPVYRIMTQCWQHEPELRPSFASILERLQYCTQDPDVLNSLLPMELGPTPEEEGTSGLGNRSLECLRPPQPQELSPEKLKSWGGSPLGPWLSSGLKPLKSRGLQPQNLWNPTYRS
Description: as §1

CAMKK1 = biological target: T21, CAMKK1 (Homo sapiens, UniProt Q8N5S9)
T21 construct: purchased Ambit Biosciences (San Diego, Calif.)
Description: as §1

FER = biological target: T22, FER (Homo sapiens, UniProt P16591)
T22 construct: purchased Ambit Biosciences (San Diego, Calif.)
T22 sequence (P16591 whole entry): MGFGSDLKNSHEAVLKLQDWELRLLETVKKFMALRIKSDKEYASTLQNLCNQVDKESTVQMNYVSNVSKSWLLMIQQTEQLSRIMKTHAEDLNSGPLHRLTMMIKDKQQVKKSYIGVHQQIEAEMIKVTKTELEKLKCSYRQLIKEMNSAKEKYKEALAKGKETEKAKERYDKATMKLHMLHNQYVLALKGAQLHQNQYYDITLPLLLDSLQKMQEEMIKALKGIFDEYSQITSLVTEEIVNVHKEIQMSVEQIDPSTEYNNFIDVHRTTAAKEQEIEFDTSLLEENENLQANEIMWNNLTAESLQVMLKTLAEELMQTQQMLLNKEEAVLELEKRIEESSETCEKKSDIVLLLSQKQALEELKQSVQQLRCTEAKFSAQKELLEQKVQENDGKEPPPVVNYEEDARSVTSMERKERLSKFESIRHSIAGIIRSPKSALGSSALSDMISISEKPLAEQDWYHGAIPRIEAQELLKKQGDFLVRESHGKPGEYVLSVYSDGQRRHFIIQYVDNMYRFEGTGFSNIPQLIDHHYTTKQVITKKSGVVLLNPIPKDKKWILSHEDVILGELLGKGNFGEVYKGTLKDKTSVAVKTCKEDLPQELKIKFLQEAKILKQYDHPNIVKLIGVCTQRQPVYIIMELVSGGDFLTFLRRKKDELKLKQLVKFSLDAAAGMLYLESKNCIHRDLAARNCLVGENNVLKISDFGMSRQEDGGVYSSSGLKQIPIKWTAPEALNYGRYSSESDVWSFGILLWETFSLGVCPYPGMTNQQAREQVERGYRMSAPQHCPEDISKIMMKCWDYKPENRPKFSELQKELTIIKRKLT
Description: as §1

PAK3 = biological target: T23, PAK3 (Homo sapiens, UniProt O75914)
T23 construct: purchased Ambit Biosciences (San Diego, Calif.)
Description: as §1

BLK = biological target: T24, BLK (Homo sapiens, UniProt P51451)
T24 construct: purchased Ambit Biosciences (San Diego, Calif.)
Description: as §1

BIKE = biological target: T25, BIKE (Homo sapiens, UniProt Q9NSY1)
T25 construct: purchased Ambit Biosciences (San Diego, Calif.)
Description: as §1

ERBB2 = biological target: T26, ERBB2 (Homo sapiens, UniProt P04626)
T26 construct: purchased Ambit Biosciences (San Diego, Calif.)
Description: as §1

CAMK2B = biological target: T27, CAMK2B (Homo sapiens, UniProt Q13554)
T27 construct: purchased Ambit Biosciences (San Diego, Calif.)
Description: as §1

STK36 = biological target: T28, STK36 (Homo sapiens, UniProt Q9NRP7)
T28 construct: purchased Ambit Biosciences
Description: as §1

STK16 = biological target: T29, STK16 (Homo sapiens, UniProt O75716)
T29 construct: purchased Ambit Biosciences
Description: as §1

TRKA = biological target: T30, TRKA (Homo sapiens, UniProt P04629)
T30 construct: purchased Ambit Biosciences
Description: as §1

EPHA7 = biological target: T31, EPHA7 (Homo sapiens, UniProt Q15375)
T31 construct: purchased Ambit Biosciences (San Diego, Calif.)
Description: as §1

CLK3 = biological target: T32, CLK3 (Homo sapiens, UniProt P49761)
T32 construct: purchased Ambit Biosciences (San Diego, Calif.)
T32 sequence (P49761 whole entry): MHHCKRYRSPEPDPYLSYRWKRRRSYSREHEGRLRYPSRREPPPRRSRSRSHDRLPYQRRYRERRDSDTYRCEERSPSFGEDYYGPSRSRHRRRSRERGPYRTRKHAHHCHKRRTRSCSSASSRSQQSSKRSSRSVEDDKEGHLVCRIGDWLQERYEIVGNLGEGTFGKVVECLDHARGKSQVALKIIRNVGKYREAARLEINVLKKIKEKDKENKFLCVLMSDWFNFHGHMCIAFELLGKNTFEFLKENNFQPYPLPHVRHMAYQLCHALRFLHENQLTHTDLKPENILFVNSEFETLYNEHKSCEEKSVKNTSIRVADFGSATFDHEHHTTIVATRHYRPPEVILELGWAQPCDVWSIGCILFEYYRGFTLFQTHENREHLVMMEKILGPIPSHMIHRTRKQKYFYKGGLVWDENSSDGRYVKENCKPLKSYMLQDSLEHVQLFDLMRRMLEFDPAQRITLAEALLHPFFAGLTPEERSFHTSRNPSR
Description: as §1

TIE2 = biological target: T33, TIE2 (Homo sapiens, UniProt Q02763)
T33 construct: purchased Ambit Biosciences
Description: as §1

MAP4K5 = biological target: T34, MAP4K5 (Homo sapiens, UniProt Q9Y4K4)
T34 construct: purchased Ambit Biosciences (San Diego, Calif.)
T34 sequence (Q9Y4K4 whole entry): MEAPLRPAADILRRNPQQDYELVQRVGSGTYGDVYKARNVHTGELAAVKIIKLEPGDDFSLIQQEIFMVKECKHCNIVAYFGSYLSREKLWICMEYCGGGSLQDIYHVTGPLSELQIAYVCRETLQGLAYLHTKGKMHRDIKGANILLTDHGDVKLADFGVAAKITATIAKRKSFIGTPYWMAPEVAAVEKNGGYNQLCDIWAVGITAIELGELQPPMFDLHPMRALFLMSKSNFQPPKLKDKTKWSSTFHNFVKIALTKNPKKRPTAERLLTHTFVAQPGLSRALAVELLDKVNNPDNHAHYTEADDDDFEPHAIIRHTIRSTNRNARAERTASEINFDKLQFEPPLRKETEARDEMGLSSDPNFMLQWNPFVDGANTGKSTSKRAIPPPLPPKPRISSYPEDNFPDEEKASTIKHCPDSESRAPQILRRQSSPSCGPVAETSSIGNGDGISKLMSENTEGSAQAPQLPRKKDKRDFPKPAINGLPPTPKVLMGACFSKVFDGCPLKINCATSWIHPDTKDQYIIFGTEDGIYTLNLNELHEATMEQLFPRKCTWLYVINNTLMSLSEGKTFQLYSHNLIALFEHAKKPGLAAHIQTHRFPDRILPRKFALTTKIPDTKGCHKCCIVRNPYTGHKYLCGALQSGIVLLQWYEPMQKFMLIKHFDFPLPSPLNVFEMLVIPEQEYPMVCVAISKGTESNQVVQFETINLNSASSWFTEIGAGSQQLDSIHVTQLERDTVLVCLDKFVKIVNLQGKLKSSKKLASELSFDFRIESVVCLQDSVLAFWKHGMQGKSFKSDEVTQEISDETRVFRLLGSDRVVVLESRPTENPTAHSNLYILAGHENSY
Description: as §1

CLK4 = biological target: T35, CLK4 (Homo sapiens, UniProt Q9HAZ1)
T35 construct: purchased Ambit Biosciences (San Diego, Calif.)
T35 sequence (Q9HAZ1 whole entry): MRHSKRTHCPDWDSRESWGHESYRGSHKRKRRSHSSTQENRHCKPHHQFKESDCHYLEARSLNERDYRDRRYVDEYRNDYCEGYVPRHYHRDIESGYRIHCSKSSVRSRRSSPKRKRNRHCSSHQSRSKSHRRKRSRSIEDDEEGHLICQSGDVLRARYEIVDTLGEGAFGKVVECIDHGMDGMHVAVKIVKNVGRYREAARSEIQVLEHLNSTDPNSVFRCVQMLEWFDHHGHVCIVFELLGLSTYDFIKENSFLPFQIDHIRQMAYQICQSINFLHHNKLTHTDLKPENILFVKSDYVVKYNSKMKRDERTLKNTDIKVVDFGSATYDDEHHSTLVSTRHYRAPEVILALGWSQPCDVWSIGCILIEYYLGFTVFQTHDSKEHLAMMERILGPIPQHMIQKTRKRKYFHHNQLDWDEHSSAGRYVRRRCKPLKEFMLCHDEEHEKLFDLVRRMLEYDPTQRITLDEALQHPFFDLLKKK
Description: as §1

STK17A = biological target: T36, STK17A (Homo sapiens, UniProt Q9UEE5)
T36 construct: purchased Ambit Biosciences
Description: as §1

EPHA5 = biological target: T37, EPHA5 (Homo sapiens, UniProt P54756)
T37 construct: purchased Ambit Biosciences (San Diego, Calif.)
Description: as §1

PAK6 = biological target: T38, PAK6 (Homo sapiens, UniProt Q9NQU5)
T38 construct: purchased Ambit Biosciences (San Diego, Calif.)
Description: as §1

EPHB1 = biological target: T39, EPHB1 (Homo sapiens, UniProt P54762)
T39 construct: purchased Ambit Biosciences (San Diego, Calif.)
T39 sequence (P54762 18-984): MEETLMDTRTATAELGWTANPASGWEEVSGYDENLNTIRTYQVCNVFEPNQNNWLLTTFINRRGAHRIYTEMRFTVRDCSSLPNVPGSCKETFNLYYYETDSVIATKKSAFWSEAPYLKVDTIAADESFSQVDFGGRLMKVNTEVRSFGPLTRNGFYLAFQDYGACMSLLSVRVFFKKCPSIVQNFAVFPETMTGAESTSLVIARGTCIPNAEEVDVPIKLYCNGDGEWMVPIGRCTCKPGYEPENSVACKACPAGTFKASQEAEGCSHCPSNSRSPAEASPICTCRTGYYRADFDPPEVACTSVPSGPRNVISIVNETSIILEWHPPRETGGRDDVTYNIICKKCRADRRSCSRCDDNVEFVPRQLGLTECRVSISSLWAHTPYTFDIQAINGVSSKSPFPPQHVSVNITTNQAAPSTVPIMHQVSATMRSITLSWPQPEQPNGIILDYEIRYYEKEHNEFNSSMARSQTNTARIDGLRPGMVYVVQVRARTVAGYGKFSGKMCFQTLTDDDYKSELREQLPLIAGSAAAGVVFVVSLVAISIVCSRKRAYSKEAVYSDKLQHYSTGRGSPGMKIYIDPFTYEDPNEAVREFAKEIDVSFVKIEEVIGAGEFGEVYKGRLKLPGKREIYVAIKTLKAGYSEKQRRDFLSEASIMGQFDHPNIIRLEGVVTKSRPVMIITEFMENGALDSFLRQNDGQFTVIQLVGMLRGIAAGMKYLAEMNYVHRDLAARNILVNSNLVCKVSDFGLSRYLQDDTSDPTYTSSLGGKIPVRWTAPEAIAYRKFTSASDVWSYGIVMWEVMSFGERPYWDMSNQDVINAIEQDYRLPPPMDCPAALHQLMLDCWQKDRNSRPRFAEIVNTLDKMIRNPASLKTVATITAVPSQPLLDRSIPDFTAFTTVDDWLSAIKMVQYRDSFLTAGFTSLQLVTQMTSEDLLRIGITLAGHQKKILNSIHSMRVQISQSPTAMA
Description: as §1

CAMK2G = biological target: T40, CAMK2G (Homo sapiens, UniProt Q13555)
T40 construct: purchased Ambit Biosciences (San Diego, Calif.)
Description: as §1

Measured: inhibition at 10 µM

NC(=O)c1ccc(-c2nc(-c3ccc4c(c3)OCO4)c(-c3ccccn3)[nH]2)cc1 [SB431542, 4-(4-benzo-[1,3]dioxol-5-yl-5-pyridin-2-yl-1H-imidazol-2-yl)benzamide]
< 50%: all assays above

NC(=O)c1ccc(-c2nc(-c3ccc4c(c3)OCCO4)c(-c3ccccn3)[nH]2)cc1 [D4476, 4-[4-(2,3-Dihydro-benzo[1,4]dioxin-6-yl)-5-pyridin-2-yl-1H-imidazol-2-yl]benzamide]
< 50%: all assays above
